Measured values reported in article PMC9846560, “Silver-promoted solid-phase guanidinylation enables the first synthesis of arginine glycosylated Samoamide A cyclopeptide analogue” (Frontiers in Chemistry, 2023).
In brackets after ≈: the same amount, converted by molar mass. Where a SMILES comes first, the peptide text is derived from it.

Legend:
[1] = head-to-tail lactamisation of linear octapeptide (N-terminal Leu or Arg onto C-terminal Val or Arg), PyBOP (3 eq)/HOBt (3 eq)/DIPEA (6 eq), 0 °C to rt, 14 h; details: the molecule shown is the open-chain precursor, 24-membered ring, DCM
[2] = Solubility test (water solubility, saturated solution); type: physicochemical; details: water (saturated aqueous solution), from solid: saturated aqueous solution at 25°C, sonicated approx. 10 min, centrifuged, supernatant diluted, UV absorbance at 214 nm against Samoamide A standard curve (C = 0.4646A - 0.0201)
Method: Samoamide A was precisely weighed, and 1 mg was placed in a 10 ml centrifuge tube and diluted to scale with 95% ethanol. Then, 0, 200, 400, 600, 800, 1,000 μl aliquots were pipetted in a 5 ml centrifuge tube and adjusted to 1 ml with 95% ethanol, and the aqueous solutions were measured on a scale, sonicated for 5 min, and placed at room temperature. An additional 1 ml of 95% ethanol was added, and water was added to the same method as the blank. The absorbance values were measured at 214 nm to obtain the linear regression equation of the standard curve.
Sufficient amounts of Samoamide A and its glycosylated derivatives were dissolved in aqueous solutions at a constant temperature of 25°C, sonicated for approximately 10 min, centrifuged and allowed to settle to remove the insoluble matter from the solution, and the upper layer of supernatant was taken, that is, the saturated solution. After the saturated solution was properly diluted, its absorbance value was measured at 214 nm, and the concentration of the saturated solution was calculated by substituting the above equation ([Chevalier et al., 2001]).

Structure (SMILES) | ring closure, overall yield ([1]; 14.0 h) [%] | further results
CC[C@H](C)[C@H](NC(=O)[C@H](Cc1ccccc1)NC(=O)[C@@H]1CCCN1C(=O)[C@@H]1CCCN1C(=O)[C@@H](N)CCCNC(=N)NS(=O)(=O)c1c(C)c(C)c2c(c1C)CC(C)(C)O2)C(=O)N1CCC[C@H]1C(=O)N[C@@H](Cc1ccccc1)C(=O)N[C@H](C(=O)O)C(C)C [H-Arg(Pbf)-Pro-Pro-Phe-Ile-Pro-Phe-Val-OH] | 9 | 
CC[C@H](C)[C@H](NC(=O)[C@H](Cc1ccccc1)NC(=O)[C@@H]1CCCN1C(=O)[C@H](CCCNC(=N)N[C@@H]1O[C@H](COC(C)=O)[C@@H](OC(C)=O)[C@H](OC(C)=O)[C@H]1NC(C)=O)NC(=O)[C@@H](N)CC(C)C)C(=O)N1CCC[C@H]1C(=O)N[C@@H](Cc1ccccc1)C(=O)N[C@H](C(=O)O)C(C)C [H-Leu-Arg(N-GlcNAc(OAc)3)-Pro-Phe-Ile-Pro-Phe-Val-OH] |  | ring closure, overall yield ([1]; 12.0 h): 20%
CC[C@H](C)[C@H](NC(=O)[C@H](Cc1ccccc1)NC(=O)[C@@H]1CCCN1C(=O)[C@H](CCCNC(=N)NS(=O)(=O)c1c(C)c(C)c2c(c1C)CC(C)(C)O2)NC(=O)[C@@H](N)CC(C)C)C(=O)N1CCC[C@H]1C(=O)N[C@@H](Cc1ccccc1)C(=O)N[C@H](C(=O)O)C(C)C [H-Leu-Arg(Pbf)-Pro-Phe-Ile-Pro-Phe-Val-OH] | 10 | 
CC[C@H](C)[C@H](NC(=O)[C@H](Cc1ccccc1)NC(=O)[C@H](CCCNC(=N)NS(=O)(=O)c1c(C)c(C)c2c(c1C)CC(C)(C)O2)NC(=O)[C@@H]1CCCN1C(=O)[C@@H](N)CC(C)C)C(=O)N1CCC[C@H]1C(=O)N[C@@H](Cc1ccccc1)C(=O)N[C@H](C(=O)O)C(C)C [H-Leu-Pro-Arg(Pbf)-Phe-Ile-Pro-Phe-Val-OH] | 10 | 
CC[C@H](C)[C@H](NC(=O)[C@H](CCCNC(=N)NS(=O)(=O)c1c(C)c(C)c2c(c1C)CC(C)(C)O2)NC(=O)[C@@H]1CCCN1C(=O)[C@@H]1CCCN1C(=O)[C@@H](N)CC(C)C)C(=O)N1CCC[C@H]1C(=O)N[C@@H](Cc1ccccc1)C(=O)N[C@H](C(=O)O)C(C)C [H-Leu-Pro-Pro-Arg(Pbf)-Ile-Pro-Phe-Val-OH] | 8 | 
Cc1c(C)c(S(=O)(=O)NC(=N)NCCC[C@H](NC(=O)[C@H](Cc2ccccc2)NC(=O)[C@@H]2CCCN2C(=O)[C@@H]2CCCN2C(=O)[C@@H](N)CC(C)C)C(=O)N2CCC[C@H]2C(=O)N[C@@H](Cc2ccccc2)C(=O)N[C@H](C(=O)O)C(C)C)c(C)c2c1OC(C)(C)C2 [H-Leu-Pro-Pro-Phe-Arg(Pbf)-Pro-Phe-Val-OH] | 6 | 
CC[C@H](C)[C@H](NC(=O)[C@H](Cc1ccccc1)NC(=O)[C@@H]1CCCN1C(=O)[C@@H]1CCCN1C(=O)[C@@H](N)CC(C)C)C(=O)N[C@@H](CCCNC(=N)NS(=O)(=O)c1c(C)c(C)c2c(c1C)CC(C)(C)O2)C(=O)N[C@@H](Cc1ccccc1)C(=O)N[C@H](C(=O)O)C(C)C [H-Leu-Pro-Pro-Phe-Ile-Arg(Pbf)-Phe-Val-OH] | 5 | 
CC[C@H](C)[C@H](NC(=O)[C@H](Cc1ccccc1)NC(=O)[C@@H]1CCCN1C(=O)[C@@H]1CCCN1C(=O)[C@@H](N)CC(C)C)C(=O)N1CCC[C@H]1C(=O)N[C@@H](CCCNC(=N)NS(=O)(=O)c1c(C)c(C)c2c(c1C)CC(C)(C)O2)C(=O)N[C@H](C(=O)O)C(C)C [H-Leu-Pro-Pro-Phe-Ile-Pro-Arg(Pbf)-Val-OH] | 4 | 
CC[C@H](C)[C@H](NC(=O)[C@H](Cc1ccccc1)NC(=O)[C@@H]1CCCN1C(=O)[C@@H]1CCCN1C(=O)[C@@H](N)CC(C)C)C(=O)N1CCC[C@H]1C(=O)N[C@@H](Cc1ccccc1)C(=O)N[C@@H](CCCNC(=N)NS(=O)(=O)c1c(C)c(C)c2c(c1C)CC(C)(C)O2)C(=O)O [H-Leu-Pro-Pro-Phe-Ile-Pro-Phe-Arg(Pbf)-OH] | 6 | 
CC[C@H](C)[C@H](NC(=O)[C@H](Cc1ccccc1)NC(=O)[C@@H]1CCCN1C(=O)[C@@H]1CCCN1C(=O)[C@@H](N)CC(C)C)C(=O)N1CCC[C@H]1C(=O)N[C@@H](Cc1ccccc1)C(=O)N[C@H](C(=O)O)C(C)C [H-Leu-Pro-Pro-Phe-Ile-Pro-Phe-Val-OH] | 15 | 
CC[C@H](C)[C@@H]1NC(=O)[C@@H]2CCCN2C(=O)[C@H](Cc2ccccc2)NC(=O)[C@H](C(C)C)NC(=O)[C@H](CC(C)C)NC(=O)[C@@H]2CCCN2C(=O)[C@@H]2CCCN2C(=O)[C@H](Cc2ccccc2)NC1=O [Samoamide A] (cyclo(LVFPIFPP)) |  | solubility thermodynamic [2]: 730 µg/mL (≈ 801 µM)
